From ChEMBL document CHEMBL5096202, “Carbon-silicon switch led to the discovery of novel synthetic cannabinoids with therapeutic effects in a mouse model of multiple sclerosis” (Eur J Med Chem, 2021)
Calls of active or inactive are those of the source. No cut-off for these calls is given here.

What was measured:
Cannabinoid receptor 2 [1] = target: T1, Cannabinoid receptor 2 (Homo sapiens, UniProt P34972); test: Agonist activity at recombinant human CB2 receptor expressed in CHO cells assessed as inhibition of forskolin-induced cAMP accumulation by measuring maximum efficacy preincubated for 15 mins followed by forskolin stimulation and measured after 15 mins by HTRF assay relative to control; assay type: functional, cell-based; conditions: filed as agonist, time 30.0 min
Cannabinoid receptor 1 [2] = target: T2, Cannabinoid receptor 1 (Homo sapiens, UniProt P21554); test: Displacement of [3H]-CP55940 from recombinant human CB1 receptor expressed in CHO cells assessed as inhibition constant incubated for 120 mins by radioligand binding assay; assay type: cell-based
Cannabinoid receptor 2 [3] = target: T1, Cannabinoid receptor 2; test: Displacement of [3H]-CP55940 from recombinant human CB2 receptor expressed in CHO cells assessed as inhibition constant incubated for 120 mins by radioligand binding assay; assay type: cell-based
Cannabinoid receptor 1 [4] = target: T2, Cannabinoid receptor 1; test: Agonist activity at recombinant human CB1 receptor expressed in CHO cells assessed as inhibition of forskolin-induced cAMP accumulation preincubated for 15 mins followed by forskolin stimulation and measured after 15 mins by HTRF assay; assay type: functional, cell-based
Cannabinoid receptor 2 [5] = target: T1, Cannabinoid receptor 2; test: Agonist activity at recombinant human CB2 receptor expressed in CHO cells assessed as inhibition of forskolin-induced cAMP accumulation preincubated for 15 mins followed by forskolin stimulation and measured after 15 mins by HTRF assay; assay type: functional, cell-based
Cannabinoid receptor 1 [6] = target: T2, Cannabinoid receptor 1; test: Agonist activity at recombinant human CB1 receptor expressed in CHO cells assessed as inhibition of forskolin-induced cAMP accumulation by measuring maximum efficacy preincubated for 15 mins followed by forskolin stimulation and measured after 15 mins by HTRF assay relative to control; assay type: functional, cell-based; conditions: filed as agonist, time 30.0 min
[7] = Metabolic stability in human liver microsomes assessed as half life; assay type: ADME, Microsome
[8] = Metabolic stability in rat liver microsomes assessed as half life; assay type: ADME, Microsome
[9] = Metabolic stability in mouse liver microsomes assessed as half life; assay type: ADME, Microsome
[10] = Metabolic stability in human liver microsomes assessed as intrinsic clearance; assay type: ADME, Microsome; conditions: read-out: CLH
[11] = Metabolic stability in rat liver microsomes assessed as intrinsic clearance; assay type: ADME, Microsome; conditions: read-out: CLH
[12] = Metabolic stability in mouse liver microsomes assessed as intrinsic clearance; assay type: ADME, Microsome; conditions: read-out: CLH
[13] = Half life in C57BL/6 mouse at 10 mg/kg, ip measured upto 24 hrs by LC-MS/MS analysis; assay type: ADME, organism-based; conditions: in vivo
[14] = Tmax in C57BL/6 mouse at 10 mg/kg, ip measured upto 24 hrs by LC-MS/MS analysis; assay type: ADME, organism-based; conditions: in vivo
[15] = Cmax in C57BL/6 mouse at 10 mg/kg, ip measured upto 24 hrs by LC-MS/MS analysis; assay type: ADME, organism-based; design: dose 10 mg/kg, time < 24 hrs, route ip; conditions: in vivo
[16] = AUClast in C57BL/6 mouse at 10 mg/kg, ip measured upto 24 hrs by LC-MS/MS analysis; assay type: ADME, organism-based; design: time < 24 hrs, dose 10 mg/kg, route ip; conditions: in vivo
[17] = AUCinfinity in C57BL/6 mouse at 10 mg/kg, ip measured upto 24 hrs by LC/MS-MS analysis; assay type: ADME, organism-based; design: dose 10 mg/kg, time < 24 hrs, route ip; conditions: in vivo
Mus musculus [18] = test: Antiinflammatory activity in MOG (35 to 55 residues)/pertussis toxin-induced experimental autoimmune encephalomyelitis C57BL/6 mouse model assessed as reduction in clinical score administered intraperitoneally starting from day 3 to day 28; assay type: functional, organism-based; conditions: route ip, time 25.0 day, DDE = dose-dependent effect
[19] = Toxicity in MOG (35 to 55 residues)/pertussis toxin-induced experimental autoimmune encephalomyelitis C57BL/6 mouse model assessed as body weight loss at 10 to 30 mg/kg, ip administered starting from day 3 to day 28; assay type: organism-based; conditions: in vivo, 600 h, dose 10-30 mg/kg, time 25 day
[20] = Toxicity in MOG (35 to 55 residues)/pertussis toxin-induced experimental autoimmune encephalomyelitis C57BL/6 mouse model assessed as motor defects at 30 mg/kg, ip administered once daily starting from day 3 to day 28; assay type: organism-based; conditions: in vivo, 600 h, time 25 day
[21] = Toxicity in MOG (35 to 55 residues)/pertussis toxin-induced experimental autoimmune encephalomyelitis C57BL/6 mouse model assessed as tolerance at 30 mg/kg, ip administered once daily starting from day 3 to day 28; assay type: organism-based; conditions: in vivo, 600 h, time 25 day
Mus musculus [22] = test: (§1) Antiinflammatory activity in MOG (35 to 55 residues)/pertussis toxin-induced experimental autoimmune encephalomyelitis C57BL/6 mouse model assessed as reduction of inflammatory cell infiltration in transverse section of lumbar spinal cords at 10 to 30 mg/kg, ip administered starting from day 3 to day 28 by H&E staining based analysis; assay type: functional, organism-based; conditions: dose 10-30 mg/kg, time 25.0 day
Mus musculus [23] = test: as §1, with “in demyelination” for “of inflammatory cell infiltration”; assay type: functional, organism-based; conditions: dose 10-30 mg/kg, time 25.0 day
Mus musculus [24] = test: as §1, with “LFB” for “H&E”; assay type: functional, organism-based; conditions: dose 10-30 mg/kg, time 25.0 day
Mus musculus [25] = test: as §1, with “in demyelination” for “of inflammatory cell infiltration”, “LFB” for “H&E”; assay type: functional, organism-based; conditions: dose 10-30 mg/kg, time 25.0 day
Mus musculus [26] = test: Antiinflammatory activity in MOG (35 to 55 residues)/pertussis toxin-induced experimental autoimmune encephalomyelitis C57BL/6 mouse model assessed as reduction in infarcted brain proportion at 10 to 30 mg/kg, ip administered starting from day 3 to day 28 by TTC staining based analysis relative to control; assay type: functional; design: scale not given: the % may be the effect or the level left; conditions: dose 10-30 mg/kg, time 25 day
[27] = Toxicity in MOG (35 to 55 residues)/pertussis toxin-induced experimental autoimmune encephalomyelitis C57BL/6 mouse model assessed as side effects at 10 to 30 mg/kg, ip administered once daily starting from day 3 to day 28; assay type: organism-based; conditions: in vivo, 600 h, dose 10-30 mg/kg, time 25 day

T1 sequence (P34972 whole entry): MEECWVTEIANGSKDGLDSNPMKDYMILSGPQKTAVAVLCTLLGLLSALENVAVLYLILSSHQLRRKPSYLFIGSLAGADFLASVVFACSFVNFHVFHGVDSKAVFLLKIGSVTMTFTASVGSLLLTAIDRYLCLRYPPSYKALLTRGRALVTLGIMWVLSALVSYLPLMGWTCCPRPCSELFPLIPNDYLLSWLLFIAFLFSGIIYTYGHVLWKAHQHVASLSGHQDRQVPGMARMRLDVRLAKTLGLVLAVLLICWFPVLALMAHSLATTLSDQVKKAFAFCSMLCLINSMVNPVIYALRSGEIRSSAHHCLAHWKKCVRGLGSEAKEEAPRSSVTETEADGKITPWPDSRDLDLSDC
T2 sequence (P21554 whole entry): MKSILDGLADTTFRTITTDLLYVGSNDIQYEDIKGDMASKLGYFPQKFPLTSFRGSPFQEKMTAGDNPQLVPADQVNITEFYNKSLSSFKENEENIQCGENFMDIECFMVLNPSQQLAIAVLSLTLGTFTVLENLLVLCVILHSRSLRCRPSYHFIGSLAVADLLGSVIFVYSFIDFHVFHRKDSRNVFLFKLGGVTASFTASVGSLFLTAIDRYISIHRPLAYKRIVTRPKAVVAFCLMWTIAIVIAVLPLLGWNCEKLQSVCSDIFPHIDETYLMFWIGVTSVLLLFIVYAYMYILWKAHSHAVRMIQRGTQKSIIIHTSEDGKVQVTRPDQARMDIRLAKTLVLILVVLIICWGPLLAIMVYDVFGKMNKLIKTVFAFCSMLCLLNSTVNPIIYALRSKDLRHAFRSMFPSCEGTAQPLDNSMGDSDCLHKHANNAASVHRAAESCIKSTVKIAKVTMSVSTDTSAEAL

CCCCCC[Si](C)(C)c1cc(O)c(C2CCCCC2)c(OC)c1
Emax (Cannabinoid receptor 2 [1]): 92.7%
Ki (Cannabinoid receptor 1 [2]): 448 nM
Ki (Cannabinoid receptor 2 [3]): 165 nM
EC50 (Cannabinoid receptor 1 [4]): 554 nM
EC50 (Cannabinoid receptor 2 [5]): 76.4 nM
Emax (Cannabinoid receptor 1 [6]): 73.9%

CCCC[Si](C)(C)c1cc(O)c(C2CCCCCC2)c(OC)c1
Emax (Cannabinoid receptor 2 [1]): 93.3%
Ki (Cannabinoid receptor 2 [3]): 616 nM
EC50 (Cannabinoid receptor 2 [5]): 475 nM

CCCC[Si](C)(C)c1cc(O)c(C2CCCC2)c(O)c1
Emax (Cannabinoid receptor 2 [1]): 102%
Ki (Cannabinoid receptor 1 [2]): 464 nM
Ki (Cannabinoid receptor 2 [3]): 368 nM
EC50 (Cannabinoid receptor 2 [5]): 53.8 nM

CCCC[Si](C)(C)c1cc(O)c2c(c1)OC(C)(C)c1ccc(C)cc1-2
Emax (Cannabinoid receptor 2 [1]): 90.4%
Ki (Cannabinoid receptor 1 [2]): 5.15 nM
Ki (Cannabinoid receptor 2 [3]): 5.01 nM
EC50 (Cannabinoid receptor 1 [4]): 400 nM
EC50 (Cannabinoid receptor 2 [5]): 268 nM
Emax (Cannabinoid receptor 1 [6]): 102%

CCCCCC[Si](C)(C)c1cc(O)c([C@H]2C=C(CO)[C@H]3C[C@@H]2C3(C)C)c(O)c1
Emax (Cannabinoid receptor 2 [1]): 94.1%
Ki (Cannabinoid receptor 1 [2]): 14.3 nM
Ki (Cannabinoid receptor 2 [3]): 11.4 nM
EC50 (Cannabinoid receptor 1 [4]): 248 nM
EC50 (Cannabinoid receptor 2 [5]): 63.5 nM
Emax (Cannabinoid receptor 1 [6]): 102%

CCCCCC[Si](C)(C)c1cc(O)c(C2CCCC2)c(O)c1
Emax (Cannabinoid receptor 2 [1]): 104%
Ki (Cannabinoid receptor 1 [2]): 64.2 nM
Ki (Cannabinoid receptor 2 [3]): 42.3 nM
EC50 (Cannabinoid receptor 2 [5]): 446 nM

CCCCCC[Si](C)(C)c1cc(O)c2c(c1)OC(C)(C)c1ccc(CO)cc1-2
Emax (Cannabinoid receptor 2 [1]): 92.7%
Ki (Cannabinoid receptor 1 [2]): 0.35 nM
Ki (Cannabinoid receptor 2 [3]): 1.25 nM
EC50 (Cannabinoid receptor 1 [4]): 59.1 nM
EC50 (Cannabinoid receptor 2 [5]): 27400 nM
Emax (Cannabinoid receptor 1 [6]): 93%

CCCC[Si](C)(C)c1cc(O)c(C2CCCCC2)c(O)c1
Emax (Cannabinoid receptor 2 [1]): 95.2%
Ki (Cannabinoid receptor 1 [2]): 241 nM
Ki (Cannabinoid receptor 2 [3]): 31.4 nM
EC50 (Cannabinoid receptor 2 [5]): 25.3 nM

CCCCCC[Si](C)(C)c1cc(O)c2c(c1)OC(C)(C)c1ccc(C)cc1-2
Emax (Cannabinoid receptor 2 [1]): 862%
Ki (Cannabinoid receptor 1 [2]): 0.79 nM
Ki (Cannabinoid receptor 2 [3]): 2.21 nM
EC50 (Cannabinoid receptor 1 [4]): 12.3 nM
EC50 (Cannabinoid receptor 2 [5]): 32.6 nM
Emax (Cannabinoid receptor 1 [6]): 98.4%

CCCC[Si](C)(C)c1cc(O)c(C2CCCCCC2)c(O)c1
Emax (Cannabinoid receptor 2 [1]): 93.4%
Ki (Cannabinoid receptor 1 [2]): 143 nM
Ki (Cannabinoid receptor 2 [3]): 63.5 nM
EC50 (Cannabinoid receptor 1 [4]): 836 nM
EC50 (Cannabinoid receptor 2 [5]): 84.4 nM
Emax (Cannabinoid receptor 1 [6]): 65%

CCCCCC[Si](C)(C)c1cc(O)c(C2CCCCC2)c(O)c1
Emax (Cannabinoid receptor 2 [1]): 95.5%
Ki (Cannabinoid receptor 1 [2]): 17.7 nM
Ki (Cannabinoid receptor 2 [3]): 9.08 nM
EC50 (Cannabinoid receptor 1 [4]): 453 nM
EC50 (Cannabinoid receptor 2 [5]): 55 nM
Emax (Cannabinoid receptor 1 [6]): 98.6%

CCCCCC[Si](C)(C)c1cc(O)c(C2CCCC2)c(OC)c1
Emax (Cannabinoid receptor 2 [1]): 89.8%
Ki (Cannabinoid receptor 1 [2]): 74.8 nM
Ki (Cannabinoid receptor 2 [3]): 167 nM
EC50 (Cannabinoid receptor 1 [4]): 709 nM
EC50 (Cannabinoid receptor 2 [5]): 236 nM
Emax (Cannabinoid receptor 1 [6]): 81.6%

CCCCCC[Si](C)(C)c1cc(OC)c([C@H]2C=C(CO)[C@H]3C[C@@H]2C3(C)C)c(OC)c1
Emax (Cannabinoid receptor 2 [1]): 90.6%
Ki (Cannabinoid receptor 1 [2]): 2890 nM
Ki (Cannabinoid receptor 2 [3]): 4930 nM
EC50 (Cannabinoid receptor 2 [5]): 460 nM
half-life [7]: 49.7 min
half-life [8]: 58.9 min
half-life [9]: 31.5 min
CLint scaled [10]: 35 mL/min/kg
CLint scaled [11]: 42.1 mL/min/kg
CLint scaled [12]: 173 mL/min/kg
half-life [13]: 407 min
Tmax [14]: 120 min
Cmax [15]: 2520 ng/mL
AUC(0-t) at 24 h [16]: 11600 ng·h/mL
AUC(0-inf) [17]: 12300 ng·h/mL
Activity (Mus musculus [18]): Dde
Activity [19]: Non-Toxic
Activity [20]: Non-Toxic
Activity [21]: Non-Toxic
Activity (Mus musculus [22]): Active
Activity (Mus musculus [23]): Active
Activity (Mus musculus [24]): Active
Activity (Mus musculus [25]): Active
Activity (Mus musculus [26]): 90%
Activity [27]: Non-Toxic

CCCC[Si](C)(C)c1cc(O)c2c(c1)OC(C)(C)c1ccc(CO)cc1-2
Emax (Cannabinoid receptor 2 [1]): 92.8%
Ki (Cannabinoid receptor 1 [2]): 2.79 nM
Ki (Cannabinoid receptor 2 [3]): 3.49 nM
EC50 (Cannabinoid receptor 1 [4]): 214 nM
EC50 (Cannabinoid receptor 2 [5]): 267 nM
Emax (Cannabinoid receptor 1 [6]): 94.8%
